The record followed here is patent publication US9657015B2, “Substituted bicyclic dihydropyrimidinones and their use as inhibitors of neutrophil elastase activity” (Boehringer Ingelheim International GmbH, priority 2014, dated 2017).

Assay [1] addresses Human neutrophil elastase (Homo sapiens (Human), UniProt P08246). Kind of assay: Human Neutrophil Elastase Assay. The format is biochemical. To be noted: substrate MeOSuc-Ala-Ala-Pro-Val-AMC 250 μM, pH 7.5, room temperature.
Procedure: The following buffers were used: Compound buffer: 100 mM Tris, 500 mM NaCl, adjusted to pH 7.5; Assay buffer: 100 mM Tris, 500 mM NaCl, adjusted to pH 7.5, containing 0.01% BSA.
Assay conditions: Test compounds were prediluted in DMSO and subsequently in compound buffer (5% DMSO final). […] After inactivation of the enzyme, fluorescence intensities were measured at 380 nm excitation and 460 nm emission wavelengths.
Each plate contains wells with a high value control (DMSO+enzyme+substrate) and wells with a low value control (DMSO+inactivated enzyme+substrate). IC50 values were estimated using a sigmoidal concentration response curve with variable slope. Means of low values were taken as 0%, means of high values as 100%.
In assay [2] the target is neutrophil elastase in human plasma (Homo sapiens (Human), UniProt P08246). Kind of assay: Neutrophil elastase inhibitory activity in human plasma. The format is biochemical. To be noted: human plasma assay (zymosan-stimulated blood plasma), substrate 250 μM, pH 7.5.
neutrophil elastase in human plasma, sequence (P08246 30-247): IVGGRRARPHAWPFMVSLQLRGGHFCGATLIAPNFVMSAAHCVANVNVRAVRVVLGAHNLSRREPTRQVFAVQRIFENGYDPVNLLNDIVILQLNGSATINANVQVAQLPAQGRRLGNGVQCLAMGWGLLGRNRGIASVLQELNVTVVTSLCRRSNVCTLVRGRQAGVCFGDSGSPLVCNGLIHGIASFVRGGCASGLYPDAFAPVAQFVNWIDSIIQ

Human neutrophil elastase, sequence (P08246 30-247): as above

As for `Cn1ncc2c1CN(C(=O)CN1C(=O)N(c3cccc(C(F)(F)F)c3)C3=C(C(=O)NCC3)C1c1ccc(C#N)cc1)C2` (stereo not shown) [Example 12.9], the IC50 – broadly, the concentration at which inhibition is half-maximal – in assay [1] is less than 1 nM; in assay [2], 1 nM.
As for `N#Cc1ccc(C2C3=C(CCNC3=O)N(c3cccc(C(F)(F)F)c3)C(=O)N2CC(=O)N2CCCCC2)cc1` (stereo not shown) [Example 12.6], the IC50 in assay [1] and in assay [2] was less than 1 nM throughout.
Take `CN1C(=O)N(c2cccc(C(F)(F)F)c2)C2=C(C(=O)NCC2)C1c1ccc(C#N)cc1Br` (stereo not shown) [Example 22, 3-Bromo-4-{3-methyl-2,5-dioxo-1-[3-(trifluoromethyl)phenyl]-1H,2H,3H,4H,5H,6H,7H,8H-pyrido[4,3-d]pyrimidin-4-yl}benzonitrile]: the IC50 in assay [1] was less than 1 nM; in assay [2], 2.5 nM.
On the same counts, the results for `CNC(=O)CN1C(=O)N(c2cccc(C(F)(F)F)c2)C2=C(C(=O)N(C)CC2)C1c1ccc(C#N)cc1` (stereo not shown) [Example 15, 2-(4-(4-Cyanophenyl)-6-methyl-2,5-dioxo-1-(3-(trifluoromethyl)phenyl)-1,2,5,6,7,8-hexahydropyrido[4,3-d]pyrimidin-3(4H)-yl)-N-methylacetamide] are 3.2 nM and 7.8 nM.
In the case of `N#Cc1ccc([C@@H]2NC(=O)N(c3cccc(C(F)(F)F)c3)C3=C2C(=O)NCC3)cc1` [Example 1B, (S)-4-(2,5-Dioxo-1-(3-(trifluoromethyl)phenyl)-1,2,3,4,5,6,7,8-octahydropyrido[4,3-d]-pyrimidin-4-yl)benzonitrile], the IC50 in assay [1] came out at 940 nM.
Same read-out and setting: to `CNC(=O)CN1C(=O)N(c2cccc(C(F)(F)F)c2)C2=C(C(=O)NCC2)[C@@H]1c1ccc(C#N)cc1` [Example 12B, (S)-2-(4-(4-Cyanophenyl)-2,5-dioxo-1-(3-(trifluoromethyl)phenyl)-1,2,5,6,7,8-hexahydropyrido[4,3-d]pyrimidin-3(4H)-yl)-N-methylacetamide] belongs 1200 nM; to `N#Cc1ccc([C@@H]2NC(=O)N(c3cccc(C(F)F)c3)C3=C2C(=O)NCC3)cc1` [Example 2B, (S)-4-(1-(3-(Difluoromethyl)phenyl)-2,5-dioxo-1,2,3,4,5,6,7,8-octahydropyrido[4,3-d]-pyrimidin-4-yl)benzonitrile], greater than 10000 nM; to `CN1C(=O)N(c2cccc(C(F)(F)F)c2)C2=C(C(=O)NCC2)[C@@H]1c1ccc(C#N)cc1CO` [Example 32B, 3-(Hydroxymethyl)-4-[(4S)-3-methyl-2,5-dioxo-1-[3-(trifluoromethyl)phenyl]-1H,2H,3H,4H,5H,6H,7H,8H-pyrido[4,3-d]pyrimidin-4-yl]benzonitrile], 39 nM.
Still for that read-out and setting: the figure for `CN1C(=O)N(c2cccc(C(F)(F)F)c2)C2=C(C(=O)NCC2)[C@@H]1c1ccc(C#N)cc1-c1cnco1` [Example 30B, 4-[(4S)-3-Methyl-2,5-dioxo-1-[3-(trifluoromethyl)phenyl]-1H,2H,3H,4H,5H,6H,7H,8H-pyrido[4,3-d]pyrimidin-4-yl]-3-(1,3-oxazol-5-yl)benzonitrile] is 12 nM.
Compound `CN1C(=O)N(c2cccc(C(F)(F)F)c2)C2=C(C(=O)NCC2)[C@@H]1c1ccc(C#N)cc1-c1cnn(C)c1` [Example 31B, 3-(1-Methyl-1H-pyrazol-4-yl)-4-[(4S)-3-methyl-2,5-dioxo-1-[3-(trifluoromethyl)-phenyl]-1H,2H,3H,4H,5H,6H,7H,8H-pyrido[4,3-d]pyrimidin-4-yl]benzonitrile] registered an IC50 in assay [1] of 17 nM.
In assay [1], `CN1C(=O)N(c2cccc(C(F)F)c2)C2=C(C(=O)NCC2)[C@@H]1c1ccc(C#N)cc1` [Example 8B, (S)-4-(1-(3-(Difluoromethyl)phenyl)-3-methyl-2,5-dioxo-1,2,3,4,5,6,7,8-octahydropyrido[4,3-d]pyrimidin-4-yl)benzonitrile] yielded an IC50 of 36 nM.
Same read-out and setting: to `CN1CCC2=C(C1=O)[C@H](c1ccc(C#N)cc1)NC(=O)N2c1cccc(C(F)(F)F)c1` [Example 4B, (S)-4-(6-Methyl-2,5-dioxo-1-(3-(trifluoromethyl)phenyl)-1,2,3,4,5,6,7,8-octahydropyrido[4,3-d]pyrimidin-4-yl)benzonitrile] belongs 1900 nM.
